# Values quoted from earlier work in US20210069098A1, “RIBAVIRIN […] COMPOSITION FOR TREATING VIRAL DISEASES” (MT RESEARCH, LLC, priority 2009, published 2021).
# Read-outs that look alike come from different tables or passages of the source.
# Key:
# [1] = test system: Influenza
# [2] = nebulized neat perflubron
# [3] = PLV
compound,measurement,setting,value
"CC(=O)N[C@@H](CS)C(=O)O [N-acetylcysteine (NAC), N-acetylcysteine]",survival,[1]; in vivo,improve survival
FC(F)(F)C(F)(F)C(F)(F)C(F)(F)C(F)(F)C(F)(F)C(F)(F)C(F)(F)Br [perflubron],gas exchange,[2],efficacy for gas exchange
same,reduction in ventilator days or mortality,[3]; low dose 10 mL/kg or high dose 20 mL/kg,failed to demonstrate a reduction in ventilator days or mortality
same,complications,"[3]; low dose or high dose, hypotension, hypoxemia and pneumothorax",more complications
superoxide dismutase [superoxide dismutase (SOD)],survival,[1]; […],improve survival
